Test results taken from patent US8642784B2, “Biologically active compound N-[3-(4-nitrophenylamino)-indole-2-ilmethylene]aminoguanidine hydrochloride with anti-inflammatory activity” (priority 2010, dated 2014).
Structures can show the parent of a compound that is named as a salt. Where two headings read alike, the source gives them in different places. Marks after values point to notes of the source that are not given here.

Columns and labels:
[1] = Study of the compound's toxicity: mice mortality, LD50 by Karber method; type: in vivo; conditions: male, mouse, in vivo; oral; stated as 'may exceed'; read-out: LD50 in oral administration
Experimental: (§1) Study of the compound of formula 2 was conducted in vivo. […] To determine the doses of the compound that would need to be studied, it is first necessary to study its toxicity. Studies were carried out in male mice with body mass 18-20 g. Compound 2 was administered as a water suspension. Each dose was administered to 5 animals. Behavior and overall condition of animals were observed during 5 days. LD50 (the dose causing the death of 50% of animals) was calculated using Karber method.

male mice = assay: as above; type: in vivo; conditions: for Animal mortality: Alive / Animal mortality: Dead: 5 mice per group, 5 days observation
Experimental: as §1

[2] = test system: carrageenan-induced peritonitis in mice; assay: Carrageenan-induced peritonitis in mice, volume of exudate; type: in vivo
Experimental: Research was carried out by a method described in [5]. Experiments were performed using male mice with body mass 23-24 g, in groups of 10 animals. […] The results were processed using variation statistics methods for biological research (mean standard error, means were calculated using Student's t-distribution).

[3] = test system: LPS-induced peritonitis in mice; assay: LPS-induced peritonitis in mice, volume of exudate; type: in vivo
Experimental: Activity was studies using the methods listed in “Methodical recommendations on experimental (preclinical) research of new nonsteroidal anti-inflammatory drugs” for new compounds screening, in animal models of peritonitis induced by lipopolysaccharide (LPS) and carrageenan.
(§2) Anti-exudative action was studied in male mice with body mice 22.0-23.0 g. Peritonitis was induced by intraperitoneal administration of lipopolysaccharide (LPS), produced from Escherichia coli (Sigma) 1.0 mg/kg, as described in [6]: after 4 hours the animals were sacrificed by CO2, their peritoneal cavity opened and the volume of exudate was measured in ml. Studied compounds and drugs of comparison were administered per os one hour before LPS, control group was composed of mice receiving 0.3 ml of saline before LPS administration. Each group had 10 animals.
(§3) The results were processed using variation statistics methods for biological research (mean standard error, means were calculated using Student's t-distribution).

[4] = test system: LPS-induced peritonitis in rats; assay: LPS-induced peritonitis in rats, volume of exudate; type: in vivo; conditions: for Anti-inflammatory activity in LPS-induced peritonitis model, % of control: rats
Experimental: as §2, with “male rate” for “male mice”, “body mass 170.0-180.0” for “body mice 22.0-23.0”, “coli (Sigma)—1.0 mg/kg” for “coli (Sigma) 1.0 mg/kg,”, “of rats” for “of mice”, “had 7” for “had 10”
as §3

mice stomach [5] = assay: Irritant action on mice stomach, single administration of 500 mg/kg; type: in vivo
Experimental: Ulcerogenic effect of compound 2 was studied in accordance with Methodical recommendations on experimental (preclinical) research of new nonsteroidal anti-inflammatory drugs. Studies were performed according to the following scheme: • 1. Study of the compounds' irritant action on mice stomach using doses five-times higher than pharmacological dose (single administration). • 2. Study of the compounds' ulcerogenic action using pharmaceutical dose during 7 days of administration. • 3. Aggravation of ulcerogenic effects of studied compounds by 0.6H hydrochloric acid. • 4. Aggravation of ulcerogenic effects of studied compounds by the known NSAIDs (indomethacin). 1. Study of Irritant Action of Compound 2
Male mice with body mass 23-24 g were deprived of food for 24 hours, water access was not limited. Number of animals in a group-10.
Compound 2 in 500 mg/kg dose was administered by a tube into the stomach, after 6 hours the animals were sacrificed, their stomachs extracted, number of ulcers counted and ulcerogenic index calculated. Ulcerogenic effect was assessed using 4-point scale: 0—no damage; 0.5—hyperemia; 1—insignificant damage (1 or 2 small bleedings); 2—multiple damage (erosions, small bleedings); 3—significant and multiple damage (erosions, bleedings); 4—severe damage, affecting all gastric mucosa (massive bleedings, erosions, perforations).

mice stomach [6] = type: in vivo
Experimental: (§4) Studies were performed according to the following scheme: • 1. […] Study of the compounds' ulcerogenic action using pharmaceutical dose during 7 days of administration. • 3. Aggravation of ulcerogenic effects of studied compounds by 0.6H hydrochloric acid. • 4. Aggravation of ulcerogenic effects of studied compounds by the known NSAIDs (indomethacin). 1.
(§5) Ulcerogenic effect was assessed using 4-point scale: 0—no damage; 0.5—hyperemia; 1—insignificant damage (1 or 2 small bleedings); 2—multiple damage (erosions, small bleedings); 3—significant and multiple damage (erosions, bleedings); 4—severe damage, affecting all gastric mucosa (massive bleedings, erosions, perforations).
After 7 days the animals were sacrificed by CO2, their stomachs extracted and the number of ulcers counted.
(§6) Drugs of comparison: indomethacin 20 mg/kg, voltaren—50 mg/kg and aminoguanidine—200 mg/kg. Each test group had 10 animals.

mice stomach [7] = assay: Aggravation of ulcerogenic effects by 0.6H hydrochloric acid; type: in vivo
Experimental: as §4, §5
(§7) Male mice with body mass 23-24 g were deprived of food for 24 hours, water access was not limited.
as §6

mice stomach [8] = assay: Aggravation of ulcerogenic effect by indomethacin; type: in vivo
Experimental: as §4, §5, §7
Drugs of comparison: voltaren—50 mg/kg and aminoguanidine—200 mg/kg. Each test group had 10 animals.

[9] = test system: adjuvant arthritis in Wistar rats; assay: Chronic arthritis (adjuvant arthritis) model in Wistar rats; type: in vivo
Experimental: Compound of formula 2 was tested in chronic arthritis (adjuvant arthritis) model in Wistar rats.
In the same dose the compound has shown a potent (better than indomethacin) chondroprotective action towards interphalangeal joints of affected leg (x-ray (röntgenography) data). In intragastric administration (analog of per os) the compound has shown systemic anti-inflammatory action (reduction of swelling, leukocytosis, TNFα level, chondroprotective action) that may be associated with the inhibition of delayed type hypersensitivity.

[10] = Assessment of other types of pharmaceutical activity
Description: All discovered types of pharmacological activity of compound 2 are present not only in its hydrochloride form, but also in its other pharmaceutically acceptable salts (e.g. Na, K, Ca, Mg), and also in complex combinations with pharmaceutically acceptable complexones (e.g. with glycyrrhizic acid).

[11] = 50 mg/kg dose, compared with indomethacin

N=C(N)N/N=C\c1[nH]c2ccccc2c1Nc1ccc([N+](=O)[O-])cc1 [Compound 2, N-[3-(4-nitrophenylamino)-indole-2-ilmethylene]aminoguanidine hydrochloride]
LD50 at 5 days [1]: > 5000 mg/kg
Note (behavior) (male mice; 500.0 mg/kg intravenous): Normal behavior
Animal mortality: Alive (male mice; 500.0 mg/kg intravenous): 5
Animal mortality: Dead (male mice; 500.0 mg/kg intravenous): 0
Note (behavior) (male mice; 1000.0 mg/kg intravenous): Normal behavior
Animal mortality: Alive (male mice; 1000.0 mg/kg intravenous): 5
Animal mortality: Dead (male mice; 1000.0 mg/kg intravenous): 0
Note (behavior) (male mice; 1500.0 mg/kg intravenous): Normal behavior
Animal mortality: Alive (male mice; 1500.0 mg/kg intravenous): 5
Animal mortality: Dead (male mice; 1500.0 mg/kg intravenous): 0
Note (behavior) (male mice; 2000.0 mg/kg intravenous): Animals depressed
Animal mortality: Alive (male mice; 2000.0 mg/kg intravenous): 4
Animal mortality: Dead (male mice; 2000.0 mg/kg intravenous): 1
Class of danger as specified by GOST 12.1.007-76 (male mice; after intravenous administration up to 2000.0 mg/kg): third class of danger
Anti-inflammatory activity in carrageenan-induced peritonitis model, % of control ([2]; 25.0 mg/kg per os): 3.9 % of control
Anti-inflammatory activity in carrageenan-induced peritonitis model, % of control ([2]; 50.0 mg/kg per os): 21.6* % of control
Anti-inflammatory activity in carrageenan-induced peritonitis model, % of control ([2]; 100.0 mg/kg per os): 45.1* % of control
Anti-inflammatory activity in carrageenan-induced peritonitis model, % of control ([2]; 200.0 mg/kg per os): 84.3* % of control
Anti-inflammatory activity in LPS-induced peritonitis model, % of control ([3]; 25.0 mg/kg per os): 2.2 % of control
Anti-inflammatory activity in LPS-induced peritonitis model, % of control ([3]; 50.0 mg/kg per os): 46.7* % of control
Anti-inflammatory activity in LPS-induced peritonitis model, % of control ([3]; 100.0 mg/kg per os): 88.9* % of control
Anti-inflammatory activity in LPS-induced peritonitis model, % of control ([3]; 200.0 mg/kg per os): 100.0* % of control
ED50 ([4]; Rattus norvegicus, po): 48 ± 4.5 mg/kg
Anti-inflammatory activity in LPS-induced peritonitis model, % of control ([4]; 10.0 mg/kg per os): 2.0 % of control
Anti-inflammatory activity in LPS-induced peritonitis model, % of control ([4]; 25.0 mg/kg per os): 26.0* % of control
Anti-inflammatory activity in LPS-induced peritonitis model, % of control ([4]; 50.0 mg/kg per os): 58.0* % of control
Anti-inflammatory activity in LPS-induced peritonitis model, % of control ([4]; 75.0 mg/kg per os): 78.0* % of control
Anti-inflammatory activity in LPS-induced peritonitis model, % of control ([4]; 100.0 mg/kg per os): 100.0* % of control
Anti-inflammatory activity compared with voltaren and aminoguanidine ([4]; summary of tables 2 and 3 (mice and rat peritonitis models)): somewhat inferior to voltaren in used models, but is better than aminoguanidine
Average ulcerogenic index (4-point scale) of single administration of the compounds in 500.0 mg/kg dose (mice stomach [5]; mice fasted 24 h, into the stomach, sacrificed after 6 hours): 0
Irritant effect on gastric mucosa (mice stomach [5]; single administration of 500 mg/kg dose): does not have irritant effect on gastric mucosa
Irritant effect on gastric mucosa (mice stomach [6]; chronic use of 200 mg/kg doses): does not have irritant effect on gastric mucosa
Average ulcerogenic index (4-point scale) of chronic administration of pharmacological dose (mice stomach [6]; mice, per os 7 days, compound 2 200 mg/kg, indomethacin 20 mg/kg, voltaren 50 mg/kg, aminoguanidine 200 mg/kg): 0
Aggravation of ulceration when combined with 0.6H hydrochloric acid (mice stomach [7]): does not aggravate ulceration
Average ulcerogenic index (4-point scale) of combining the studied compounds with hydrochloric acid (mice stomach [7]; compound 2 100 mg/kg, indomethacin 20 mg/kg, voltaren 50 mg/kg, aminoguanidine 200 mg/kg, 1 hour before 0.6H HCl 5 ml/kg, after 4 hours): 0.15
Aggravation of ulceration when combined with indomethacin (mice stomach [8]; indomethacin in 20 mg/kg dose): does not aggravate ulceration
Average ulcerogenic index (4-point scale) of combining the studied compounds with indomethacin (mice stomach [8]; mice, compound 2 100 mg/kg, voltaren 50 mg/kg, aminoguanidine 200 mg/kg, 1 hour before indomethacin 20 mg/kg, after 5 hours): 2.2
Chondroprotective effect (cartilage width) ([9]; 50 mg/kg dose): chondroprotective effect of compound 2 was noted
Degeneration of articular carriage of hock ([9]; 50 mg/kg dose): partially prevented the degeneration of articular carriage of hock
Development of joint sclerosis and degradation of hind leg interphalangeal joints (x-ray) [9, 11]: most effective in inhibiting the development of joint sclerosis and degradation of hind leg interphalangeal joints, better than the drug of comparison
Level of TNFα in blood plasma [9, 11]: reduced the level of TNFα as good as the drug of comparison
Severity of hind leg swelling ([9]; 50 and 75 mg/kg doses): reduced the severity of hind leg swelling
Development of delayed type hypersensitivity ([9]; adjuvant arthritis, Wistar rats): inhibiting the development of delayed type hypersensitivity
Leukocytosis ([9]; adjuvant arthritis, Wistar rats, intragastric): reducing leukocytosis
Other types of pharmaceutical activity [10]: possesses anti-allergic, antihypoxic and analgesic activity
